Measurements from the supplement of paper PMC11061612.

What was measured:
Assay in all cases: combination Emax (second highest fraction inhibited in the dose matrix, 72 h); higher = more inhibition; extreme values may be limits of the assay
SF268 (Low Grade Glioma) = tested on: SF268 (Low Grade Glioma)
Outline: (§1)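 Bliss excess equals the observed combination effect minus the expected value EA + EB − EA·EB, where EA and EB are the effects of each agent alone. Combination Emax is the second-highest inhibition within the matrix. Inhibition was scaled from CellTiter-Glo 2.0 luminescence, with 0 set by vehicle wells and 1 by blank wells, after 72 hours of two-drug dosing of cells plated in 1536-well plates.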

LN-229 (Glioblastoma) = tested on: LN-229 (Glioblastoma)
Outline: as §1

[1] = tested on: RERF-GC-1B (Gastric Carcinoma)
Outline: as §1

A2058 (Melanoma) = tested on: A2058 (Melanoma)
Outline: as §1

GB-1 (Glioblastoma) = tested on: GB-1 (Glioblastoma)
Outline: as §1

[2] = tested on: CAL-62 (Thyroid Gland Carcinoma)
Outline: as §1

[3] = tested on: TE-8 (Esophageal Squamous Cell Carcinoma)
Outline: as §1

[4] = tested on: SU-DHL-10 (B-Cell Non-Hodgkin's Lymphoma)
Outline: as §1

[5] = tested on: HSC-39 (Gastric Carcinoma)
Outline: as §1

[6] = tested on: FADU (Head and Neck Carcinoma)
Outline: as §1

[7] = tested on: REH (B-Lymphoblastic Leukemia)
Outline: as §1

[8] = tested on: KE-37 (T-Lymphoblastic Leukemia)
Outline: as §1

[9] = tested on: NCI-H2342 (Lung Adenocarcinoma)
Outline: as §1

[10] = tested on: MFE-280 (Endometrial Carcinoma)
Outline: as §1

[11] = tested on: PC-3_[JPC-3] (Lung Adenocarcinoma)
Outline: as §1

[12] = tested on: L-1236 (Hodgkin's Lymphoma)
Outline: as §1

[13] = tested on: NCI-H23 (Lung Adenocarcinoma)
Outline: as §1

[14] = tested on: 23132-87 (Gastric Carcinoma)
Outline: as §1

[15] = tested on: COLO-680N (Esophageal Squamous Cell Carcinoma)
Outline: as §1

WM278 (Melanoma) = tested on: WM278 (Melanoma)
Outline: as §1

| SMILES | combination Emax (SF268 (Low Grade Glioma)) | combination Emax (LN-229 (Glioblastoma)) | combination Emax [1] | combination Emax (A2058 (Melanoma)) | combination Emax (GB-1 (Glioblastoma)) | combination Emax [2] | combination Emax [3] | combination Emax [4] | combination Emax [5] | combination Emax [6] | combination Emax [7] | combination Emax [8] | combination Emax [9] | combination Emax [10] | combination Emax [11] | combination Emax [12] | combination Emax [13] | combination Emax [14] | combination Emax [15] | combination Emax (WM278 (Melanoma)) |
| --- | --- | --- | --- | --- | --- | --- | --- | --- | --- | --- | --- | --- | --- | --- | --- | --- | --- | --- | --- | --- |
| COc1nnc2ccc(N3CCC(c4ccc(OCCN5CCN(C)C(=O)[C@H]5C)cc4)CC3)nn12 [AZD5153] + CCN(CCO)CCCOc1ccc2c(Nc3cc(CC(=O)Nc4cccc(F)c4)[nH]n3)ncnc2c1 [AZD2811] (first compound max 1 µM, 7x7, partner max 1 µM) | 0.609 | 0.411 | 0.685 | 0.788 | 0.243 | 0.774 | 0.556 | 1 | 0.952 | 0.533 | 0.903 | 1 | 0.433 | 0.348 | 0.425 | 0.988 | 0.666 | 0.173 | 0.357 | 0.466 |
| COc1nnc2ccc(N3CCC(c4ccc(OCCN5CCN(C)C(=O)[C@H]5C)cc4)CC3)nn12 [AZD5153] + C[C@@H]1COCCN1C2=NC(=NC(=C2)C3(CC3)[S@](=N)(=O)C)C4=C5C=CNC5=NC=C4 [AZD6738] (first compound max 1 µM, 7x7, partner max 10 µM) | 0.773 | 0.575 | 0.796 | 0.908 | 0.678 | 0.895 | 0.617 | 1 | 1 | 0.642 | 0.96 | 0.978 | 0.673 | 0.425 | 0.5 | 0.998 | 1 | 0.594 | 0.383 | 0.671 |
| COc1nnc2ccc(N3CCC(c4ccc(OCCN5CCN(C)C(=O)[C@H]5C)cc4)CC3)nn12 [AZD5153] + Cc1c2c(nn1C)CSCc1cc(n(C)n1)CSc1cc(c3ccccc3c1)OCCCc1c(C(=O)O)n(C)c3c-2c(Cl)ccc13 [AZD5991] (first compound max 1 µM, 7x7, partner max 1 µM) | 0.569 | 0.629 | 0.985 | 0.975 | 0.288 | 0.795 | 0.705 | 1 | 1 | 0.975 | 0.965 | 0.997 | 0.563 | 0.45 | 0.39 | 1 | 0.997 | 0.87 | 0.37 | 0.484 |
| COc1nnc2ccc(N3CCC(c4ccc(OCCN5CCN(C)C(=O)[C@H]5C)cc4)CC3)nn12 [AZD5153] + Cn1cnc2c(F)c(Nc3ccc(Br)cc3Cl)c(C(=O)NOCCO)cc21 [Selumetinib] (first compound max 1 µM, 7x7, partner max 10 µM) | 0.518 | 0.511 | 0.753 | 0.842 | 0.288 | 0.844 | 0.575 | 1 | 0.76 | 0.629 | 0.469 | 0.654 | 0.347 | 0.361 | 0.525 | 1 | 0.852 | 0.2 | 0.378 | 0.799 |
| Cc1c2c(nn1C)CSCc1cc(n(C)n1)CSc1cc(c3ccccc3c1)OCCCc1c(C(=O)O)n(C)c3c-2c(Cl)ccc13 [AZD5991] + C1CN(CCC1(C(=O)N[C@@H](CCO)C2=CC=C(C=C2)Cl)N)C3=NC=NC4=C3C=CN4 [Capivasertib] (first compound max 1 µM, 7x7, partner max 3 µM) | 0.216 | 0.42 | 0.989 | 0.908 | 0.195 | 0.152 | 0.523 | 1 | 1 | 1 | 0.849 | 1 | 0.298 | 0.461 | 0.203 | 0.42 | 0.899 | 0.934 | 0.139 | 0.266 |
| Cc1c2c(nn1C)CSCc1cc(n(C)n1)CSc1cc(c3ccccc3c1)OCCCc1c(C(=O)O)n(C)c3c-2c(Cl)ccc13 [AZD5991] + C=CCn1c(=O)c2cnc(Nc3ccc(N4CCN(C)CC4)cc3)nc2n1-c1cccc(C(C)(C)O)n1 [AZD1775] (first compound max 1 µM, partner max 1 µM) | 0.577 | 0.855 | 1 | 0.892 | 0.293 | 0.766 | 0.818 | 1 | 1 | 0.963 | 0.877 | 0.995 | 0.306 | 0.469 | 0.466 | 0.824 | 0.966 | 0.96 | 0.287 | 0.463 |
| Cc1c2c(nn1C)CSCc1cc(n(C)n1)CSc1cc(c3ccccc3c1)OCCCc1c(C(=O)O)n(C)c3c-2c(Cl)ccc13 [AZD5991] + CC1(C)CCC(CN2CCN(c3ccc(C(=O)NS(=O)(=O)c4ccc(NCC5CCOCC5)c([N+](=O)[O-])c4)c(Oc4cnc5[nH]ccc5c4)c3)CC2)=C(c2ccc(Cl)cc2)C1 [Venetoclax] (first compound max 1 µM, 7x7, partner max 1 µM) | 0.248 | 0.503 | 1 | 0.914 | 0.133 | 0.148 | 0.403 | 1 | 1 | 0.946 | 1 | 0.987 | 0.262 | 0.193 | 0.254 | 0.764 | 0.899 | 0.903 | 0.0971 | 0.291 |
| Cc1c2c(nn1C)CSCc1cc(n(C)n1)CSc1cc(c3ccccc3c1)OCCCc1c(C(=O)O)n(C)c3c-2c(Cl)ccc13 [AZD5991] + CCN(CCO)CCCOc1ccc2c(Nc3cc(CC(=O)Nc4cccc(F)c4)[nH]n3)ncnc2c1 [AZD2811] (first compound max 1 µM, 7x7, partner max 1 µM) | 0.472 | 0.522 | 0.998 | 0.919 | 0.264 | 0.237 | 0.529 | 1 | 1 | 0.986 | 0.931 | 1 | 0.427 | 0.482 | 0.274 | 0.491 | 0.926 | 0.924 | 0.211 | 0.396 |
| Cc1c2c(nn1C)CSCc1cc(n(C)n1)CSc1cc(c3ccccc3c1)OCCCc1c(C(=O)O)n(C)c3c-2c(Cl)ccc13 [AZD5991] + CN(C)CCCOc1ccc(-c2ccc3ncc4c(c3c2)n(C2CCOCC2)c(=O)n4C)cn1 [AZD0156] (first compound max 1 µM, 7x7, partner max 1 µM) | 0.3 | 0.483 | 0.978 | 0.465 | 0.186 | 0.218 | 0.379 | 1 | 1 | 0.972 | 0.694 | 0.939 | 0.278 | 0.38 | 0.279 | 0.331 | 0.913 | 0.934 | 0.219 | 0.248 |
| Cc1c2c(nn1C)CSCc1cc(n(C)n1)CSc1cc(c3ccccc3c1)OCCCc1c(C(=O)O)n(C)c3c-2c(Cl)ccc13 [AZD5991] + C[C@@H]1COCCN1C2=NC(=NC(=C2)C3(CC3)[S@](=N)(=O)C)C4=C5C=CNC5=NC=C4 [AZD6738] (first compound max 1 µM, 7x7, partner max 10 µM) | 0.692 | 0.777 | 1 | 0.925 | 0.489 | 0.806 | 0.751 | 1 | 1 | 0.985 | 0.945 | 1 | 0.333 | 0.384 | 0.37 | 0.74 | 0.977 | 0.979 | 0.324 | 0.562 |
| Cc1c2c(nn1C)CSCc1cc(n(C)n1)CSc1cc(c3ccccc3c1)OCCCc1c(C(=O)O)n(C)c3c-2c(Cl)ccc13 [AZD5991] + C[C@@H](Nc1cc(F)cc(F)c1)c1cc(C(=O)N(C)C)cc2c(=O)cc(N3CCOCC3)oc12 [AZD8186] (first compound max 1 µM, 7x7, partner max 3 µM) | 0.3 | 0.546 | 0.98 | 0.821 | 0.219 | 0.206 | 0.373 | 1 | 1 | 0.968 | 0.776 | 0.919 | 0.294 | 0.465 | 0.348 | 0.291 | 0.896 | 0.867 | 0.215 | 0.365 |
| Cc1c2c(nn1C)CSCc1cc(n(C)n1)CSc1cc(c3ccccc3c1)OCCCc1c(C(=O)O)n(C)c3c-2c(Cl)ccc13 [AZD5991] + Cc1cc2ncnn2cc1Nc1ncc2c(n1)n(C1CCOCC1)c(=O)n2C [AZD7648] (first compound max 1 µM, 7x7, partner max 10 µM) | 0.243 | 0.389 | 0.987 | 0.452 | 0.264 | 0.439 | 0.427 | 1 | 1 | 0.963 | 0.8 | 0.975 | 0.317 | 0.437 | 0.289 | 0.426 | 0.934 | 0.887 | 0.19 | 0.285 |
